The values that follow come from a melting point compilation (Tetko et al.; mined from patent text by program, amines drawn as free bases though some values may be those of a salt).

Broadly, the melting point is the temperature of the solid-liquid transition.

With `COc1ccc(C2(C)CNC(=O)O2)cc1OC(C)C` (stereo not given), the melting point lay in the range of 67 to 69.5 °C.

Molecule `CC(C)=NOCc1nc2c(N)nc3c(c2n1CC(C)C)CCCC3` showed a melting point of 176 to 177 °C.

In turn, `CCOC(=O)N1CC2(C1)N=C(N)c1c(F)cccc1N2` showed a melting point of 210 to 212 °C.

For `COCOc1cc(OC)c(OCOC)c(CCCCCc2c(OC)c(OCOC)c(C)c(OC)c2OCOC)c1OC`, the melting point is 76 to 77 °C.

`C=CC(=O)[C@@H]1CCCC[C@H]1C(=O)O` (relative stereo) returned a melting point of 101 to 102 °C.

`CCN1C(=O)C(C)(C)C(=O)N(C)c2cc(CN(CCn3cc(C)c4occc4c3=O)Cc3cnc(C)nc3)ccc21` returned a melting point of 166 to 167 °C.

In turn, `Cn1nc(C(F)(F)F)cc1Oc1cc(C#N)cc(Oc2cc(C(F)(F)F)nn2C)c1` had a melting point of 139 °C.

Take `O=C(O)c1ccc(OCCCCCCc2cccc(O)c2O)c(Cl)c1`: the melting point is 157 to 160 °C.

Molecule `CCOC(=O)C(CCCCCN1C(=O)c2ccccc2C1=O)(NC(C)=O)C(=O)OCC` gave a melting point of 70 to 72 °C.

`ClC1=Nc2cc(Cl)ccc2Cn2cccc21` registered a melting point of 129 to 135 °C.

The molecule `CN1CCN(C(=O)OC2C3=C(SCCS3)C(=O)N2c2ccc(Cl)cn2)CC1` (stereo not given) showed a melting point of 170 °C.

Take `CNS(=O)(=O)c1cc(S(=O)(=O)NC)c(C(Cl)=C(Cl)Cl)cc1N`: the melting point is 211 to 212 °C.

The molecule `CC(C)N1CCN(Cc2cc(NC(=O)Nc3ccc(Oc4cc(Cl)ncn4)cc3)cc(C(F)(F)F)c2)CC1` had a melting point of 101 °C.

With `S=C1CN=C(c2ccccc2Cl)c2cc(CCc3ccc(Cl)cc3)sc2N1`, the melting point lay within 201 to 203 °C.

`COc1cc(C(=O)C=Cc2cccnc2)cc(OC)c1OC` gave a melting point of 137 to 138 °C.

`CCN(CC)c1ccc(S(=O)(=O)N2CC(O)CC2=S)cc1` (stereo not given) had a melting point of 149 to 150 °C.

`COCOc1ccc(/C=C/C(=O)/C=C/c2ccc(OCOC)c(OCOC)c2)cc1OCOC` came in with a melting point of 86 to 88 °C.

`Nn1cc(Cl)c(=O)[nH]c1=O`: the melting point fell in the range of 224 to 225 °C.

On to `N#CC(NC(=O)c1ccnc(Cl)c1)c1cccs1` (stereo not given), for which the melting point lay within 123 to 125 °C.

Consider `CSc1ncc(C(C)c2cccnc2)c(=O)[nH]1` (stereo not given), for which the melting point lay in the range of 201 to 204 °C.

Regarding `O=C1Nc2ccc(Oc3ccccc3)cc2SC(c2ccc3c(c2)OCO3)C1O` (stereo not given), the melting point fell in the range of 228 to 230 °C.

On to `CN1CCN2c3ccc(Cl)cc3C(c3ccco3)=[N+]([O-])CC2C1` (stereo not given), for which the melting point lay within 202 to 204 °C.

As to `COC(=O)C=Cc1ccc(-c2ccccc2C(F)(F)F)c(C(F)(F)F)c1`, the melting point lay in the range of 97 to 98 °C.

For `COc1cc(C(O)C(C)C)cc2c1OC(C)(C)C2` (stereo not given), the melting point fell in the range of 113 to 116 °C.

With `Cc1c(C(=O)c2ccc(Cl)c(S(N)(=O)=O)c2)sc2ccccc12`, the melting point was determined as 210 °C.

With `Oc1ccc(-c2cccc(F)c2F)cc1`, the melting point is 132 to 134 °C.

`CCOC(=O)c1cc(=O)c2c(OCC(O)COc3cccc4occc(=O)c34)cccc2o1` (stereo not given) yielded a melting point of 155 to 159 °C.

Consider `CN1C(=O)C(C)(Cc2ccccc2)N(C)C(=O)C1=Cc1cccnc1Cl` (stereo not given), for which the melting point was found to be 146 °C.

`CCOC(=O)c1ccc2nc3c(c(=O)n2c1)CSC3` displayed a melting point of 183 to 185 °C.

In turn, `O=C(O)CC1Cc2ccc(OCc3ccccc3)cc2C1` (stereo not given) gave a melting point of 127 to 129 °C.

`CN(C)c1cc(C(F)(F)F)cc(Cl)c1-n1nc(C#N)c(S(=O)(=O)C(F)(F)F)c1N` came in with a melting point of 197 °C.

For the molecule `COCC(=O)N(c1c(C)ccc(CC(=O)Nc2cc(Cl)cc(Cl)c2)c1C)C(C)C(=O)OC` (stereo not given), the melting point fell in the range of 126 to 128 °C.

On to `O=S(=O)(Nc1ccc2c(OCc3ccc(C4CCCCC4)cc3)cccc2c1)C(F)(F)F`, for which the melting point was in the range of 108 to 110 °C.

For `CCCCc1nc2c(N)nc3ccccc3c2n1CCCNS(=O)(=O)c1ccc(C)cc1`, the melting point was 197 to 198 °C.

`O=C(CC(NC(=O)c1ccccc1)c1ccccc1)Nc1n[nH]c(=S)s1` (stereo not given) had a melting point of 266 to 267 °C.

In turn, `Cn1ncc2c(c1=O)C(Cc1ccccc1)NCCS2` (stereo not given) yielded a melting point of 112 to 114 °C.

Molecule `O=Cc1ccc(-c2ccc(-c3cn([C@H]4CN5CCC4CC5)nn3)cc2)s1` showed a melting point of 228 °C.

With `CCN1C(=O)C2CCCN2Cc2ccccc21` (stereo not given), the melting point was in the range of 138 to 140 °C.

Molecule `CCOC(=O)NS(=O)(=O)c1ccc2c(c1)CCN(C(=O)N(C)C)CC2` registered a melting point of 140 to 141 °C.

In the case of `Cc1nc2c(s1)CCCC2=O`, the melting point fell in the range of 86 to 87 °C.

Regarding `O=C(O)CCc1cn(Cc2ccc(OCc3noc(-c4ccccc4)n3)cc2)nc1-c1ccccc1`, the melting point lay within 166 to 167 °C.

`Oc1ccc(-c2nnc(Nc3ccc(Br)c(Cl)c3)s2)cc1O` gave a melting point of 220 °C.

Consider `OC[C@H]1COc2cc(Cl)ccc2O1`, for which the melting point fell in the range of 73 to 75 °C.

With `O=C(O)Cc1ccccc1Oc1cccc(F)c1`, the melting point is 81 to 84 °C.

For the molecule `OCC#Cc1cccnc1`, the melting point lay within 99 to 100 °C.

`CC(C)NC(Nc1cc(C(F)(F)F)cc(C(F)(F)F)c1)=C(C#N)S(C)(=O)=O` had a melting point of 188 to 191 °C.

For the molecule `O=c1oc(-c2ccc3c(c2)OCCO3)cc(O)c1SCc1ccccc1`, the melting point fell in the range of 192 to 193 °C.

Molecule `CC(C)Nc1cccnc1N1CCN(C(=O)c2ccc(C(=O)O)cn2)CC1` came in with a melting point of 211 to 214 °C.

On to `COC(=O)C1=CSCC1OC` (stereo not given), for which the melting point is 79 to 81 °C.

Molecule `CCCCn1c(C)c(C(=O)NC2CCN(CCc3ccccc3)CC2)c2cc(O)ccc21` returned a melting point of 178 to 181 °C.

As to `Cn1ccnc1Sc1ccc(Nc2c(C#N)cnc3sccc23)cc1Cl`, the melting point is above 240 °C.

In turn, `NC(=O)c1nccn1C1Cc2ccccc2C1=O` (stereo not given) gave a melting point of 183 °C.

The molecule `O=C1C=CN2c3ccccc3CCC2C1` (stereo not given) showed a melting point of 135 to 137 °C.

As to `O=c1ccn([C@H]2C=C[C@@H](O)C2)c(=O)[nH]1` (racemic), the melting point fell in the range of 163 to 164 °C.

`N#Cc1ccc(OCC(O)CN2CC3CC(C2)CN(C(=O)OCc2ccc([N+](=O)[O-])cc2)C3)cc1` (stereo not given) yielded a melting point of 165 to 166 °C.

Molecule `CSc1ccc2ccc(Br)cc2c1` returned a melting point of 80 to 81 °C.

Molecule `O=C(c1cc(Cl)ccc1NC(=O)C(Cl)(Cl)Cl)C1CCCCC1` yielded a melting point of 93 to 93.5 °C.

Molecule `Cc1cc2c(S(C)(=O)=O)nc(CCC(F)(F)F)nc2s1` displayed a melting point of 60 to 61 °C.

`CC1(C)[C@H](CN2CCCCS2(=O)=O)CC[C@]1(C)NCC(=O)N1C[C@@H](F)C[C@H]1C#N`: the melting point was 186 to 190 °C.

With `COc1ccc([N+](=O)[O-])c(NCCC[C@H](N)C(=O)O)c1`, the melting point was in the range of 245 to 246 °C.

For the molecule `NC(=O)C[C@H](NC(=O)c1ccc(OCc2ccccc2)cc1OCc1ccccc1)C(=O)N1CCN(Cc2ccccc2)CC1`, the melting point was in the range of 66 to 68 °C.

As for `O=CN1CCN(c2ncc3c(=O)c(C(=O)ON4C(=O)CCC4=O)c[nH]c3n2)CC1`, the melting point was above 300 °C.

On to `COc1cc(OC)c2c(=O)[nH]c(-c3ccc(OC)c(-c4ccc(S(C)=O)cc4)n3)nc2c1` (stereo not given), for which the melting point lay within 266 to 267 °C.

For the molecule `OC(CCCN1CCC(c2ncco2)CC1)c1ccc(F)cc1` (stereo not given), the melting point is 99 to 100 °C.

As for `CCCn1c(-c2ccc3c(c2)OCO3)nc2ccccc21`, the melting point lay within 77.5 to 78 °C.

The molecule `C=Cc1cc(C)nc2c(OCc3ccccc3)cccc12` displayed a melting point of 114 °C.

Turning to `O=C(c1cccs1)c1cnn2c(-c3cccc(NCc4cccc(Cl)c4)c3)ccnc12`, the melting point lay within 133 to 135 °C.

`CCOC(=O)c1sc(OCC)nc1-c1cccc(C(F)(F)F)c1`: the melting point lay in the range of 69 to 72 °C.

`COc1cc(C(C)C)c2c(c1)S(=O)(=O)N(COc1cc(C(=O)O)nn1-c1ccccc1)C2=O` came in with a melting point of 193 to 194 °C.

On to `C=CCNc1nc(NCC=C)nc(NCCC2CC(C)(C)NC(C)(C)C2)n1`, for which the melting point is 74 to 75 °C.

As to `CCOC(=O)c1cn(CCCl)c2nc(N3CCN(C(=O)OCC)CC3)c(F)cc2c1=O`, the melting point was in the range of 143 to 144 °C.

Molecule `C/C(=C\CO)c1ccc(OCc2nc(-c3ccccc3)oc2C)cc1` displayed a melting point of 126 to 127 °C.

Take `COc1ccc(C(=O)c2[nH]c(=O)[nH]c2COC(C)=O)cc1`: the melting point lay in the range of 155 to 162 °C.

Consider `CC(Oc1ccc(F)cc1)c1ccnn2cnnc12` (stereo not given), for which the melting point lay within 103 to 104 °C.

For `C=CCC1(CCNC(=O)C2CC2)c2cc(OC)ccc2CCC12OCCO2` (stereo not given), the melting point fell in the range of 94 to 95 °C.

On to `CNC(=O)Nc1snc(C)c1C(=O)OC`, for which the melting point fell in the range of 236 to 237 °C.

As for `O=C(Nc1ccnn1-c1ccc(Cl)cc1Cl)c1cccnc1Cl`, the melting point was 162 to 164 °C.

`CCc1c(C(=O)NCCCCCCC(=NOCCN)c2ccc(C(F)(F)F)cc2)nc(-c2ccccc2Cl)n1-c1ccc(Cl)cc1` yielded a melting point of 90 to 95 °C.

As for `CC1(C)CCC(C)(C)c2cc(OCc3ccc(C=O)cc3)ccc21`, the melting point lay in the range of 102 to 104 °C.

With `c1cc(NC2CC2)ccn1`, the melting point is 111 to 112 °C.

With `Cc1ccn(NS(=O)n2ccnc2)c(=N)c1` (stereo not given), the melting point is 176 to 177 °C.

As for `CN1CCC(c2nc3ccccc3[nH]2)C1` (stereo not given), the melting point was 189 to 193 °C.

For `O=C1CCN(Cc2cccc(C(F)(F)F)c2)CC1C(c1ccccc1)c1ccccc1` (stereo not given), the melting point lay within 128 to 129 °C.

Turning to `Cc1cc(CNC(=O)c2sc(-n3cnn(Cc4ccc(F)cc4)c3=O)nc2C)[nH]n1`, the melting point fell in the range of 234 to 235 °C.

The molecule `CCCCCCCC(=O)c1ccc(CCC(CC)(COC(C)=O)NC(C)=O)cc1` (stereo not given) returned a melting point of 75 to 76 °C.

Molecule `c1cc(OC[C@H]2CO2)cc(-c2noc3ncccc23)c1` had a melting point of 91 to 93 °C.

Take `C[C@H]1[C@H](O)[C@H](O)C(S(=O)(=O)c2ccccc2)=C[C@H](C)[C@H]1O[Si](C)(C)C(C)(C)C`: the melting point was 117 to 119 °C.

On to `COC(=O)CCCC1C(=S)Nc2ccccc21` (stereo not given), for which the melting point fell in the range of 132 to 134 °C.

As to `CCCCC(Cc1ccc(OCCNC(=O)c2ccc(-c3cccc(CN(C)C)c3)cc2)cc1)C(=O)O` (stereo not given), the melting point fell in the range of 95 to 97 °C.

Molecule `CCCNc1nc(C#N)c(C#N)nc1SCc1ccccc1` yielded a melting point of 153 to 156 °C.
